# Measured values as given in patent publication US11147818B2, “Combination therapies” (Infinity Pharmaceuticals, Inc., priority 2016, dated 2021).
# Assays:
# Assay in all cases: Combination study of Compound 1 with selinexor, ATPLite cell growth/viability, 9x9 dose matrix
# Type in all cases: cell-based
# Conditions in all cases: Compound 1 in combination with Selinexor, 72 hours
# H9 cell line = system: H9 cell line
# Experimental: (§1) The synergistic effects of compounds provided herein and another therapeutic agent were carried out. The method is described as follows. Cells were thawed from a liquid nitrogen preserved state. Once cells were expanded and divided at their expected doubling times, screening began. Cells were seeded in growth media in either black 1536-well or 384-well tissue culture treated plates. Cells were then equilibrated in assay plates via centrifugation and placed in incubators attached to the Dosing Modules at 37° C. for 24 hours before treatment. […] These Tzero (To) plates were read using ultra-sensitive luminescence on Envision plate readers (Perkin Elmer). Treated assay plates were incubated with compound for 72 hours. After 72 hours, plates were developed for endpoint analysis using ATPLite. All data points were collected via automated processes, quality controlled and analyzed using Zalicus software. Assay plates were accepted if they passed the following quality control standards: relative luciferase values were consistent throughout the entire experiment, Z-factor scores were greater than 0.6, untreated/vehicle controls behaved consistently on the plate.
# Inhibition (I) is defined as I=(1−T/V)*100% where T is treated cell count and V is untreated (vehicle) cell count (at 72 hours). I ranges from 0% (when T=V) to 100% (when T=0). The IC50 value is defined as the drug concentration needed to inhibit 50% of the cell growth compared to growth of the vehicle treated cells (the drug concentration which gives I=50%). The measure of effect in the experiment can be the inhibition of cellular response relative to the untreated level (vehicle alone). For untreated vehicle and treated levels V and T, a fractional inhibition I=1-T/V is calculated. […] When activity ratios (e.g., fold increase over stimulated control) are being used, the effect can be measured using an induction I=ln(T/V). […]
# Growth Inhibition (GI) is used as a measure of cell viability. The cell viability of vehicle is measured at the time of dosing (TO) and after 72 hours (T72). A GI reading of 0% represents no growth inhibition—T72 compound-treated and T72 vehicle signals are matched. A GI reading of 100% represents complete growth inhibition—T72 compound-treated and TO vehicle signals are matched. […] A GI reading of 200% represents complete death of all cells in the culture well. […] GI is calculated by applying the following test and equation: […]
# Combination analysis data were collected in a 9×9 dose matrix. Synergy was calculated by comparing a combination's response to those of its single compound, against the drug-with-itself dose-additive reference model. Deviations from dose additivity may be assessed visually on an isobologram or numerically with a Combination Index (CI). […]
# HH cell line = system: HH cell line
# Experimental: as §1
# (§2) Inhibition (I) is defined as I=(1−T/V)*100% where T is treated cell count and V is untreated (vehicle) cell count (at 72 hours). I ranges from 0% (when T=V) to 100% (when T=0). The IC50 value is defined as the drug concentration needed to inhibit 50% of the cell growth compared to growth of the vehicle treated cells (the drug concentration which gives I=50%). The measure of effect in the experiment can be the inhibition of cellular response relative to the untreated level (vehicle alone). For untreated vehicle and treated levels V and T, a fractional inhibition I=1-T/V is calculated. The inhibition ranges from 0% at the untreated level to 100% when T=0. Inhibition levels are negative for agents that actually increase levels. Other effect measures, such as an activity ratio r=T/V may be more appropriate for some assays. When activity ratios (e.g., fold increase over stimulated control) are being used, the effect can be measured using an induction I=ln(T/V). With this definition, all effect expressions are the same as for inhibition.
# (§3) Growth Inhibition (GI) is used as a measure of cell viability. The cell viability of vehicle is measured at the time of dosing (TO) and after 72 hours (T72). A GI reading of 0% represents no growth inhibition—T72 compound-treated and T72 vehicle signals are matched. A GI reading of 100% represents complete growth inhibition—T72 compound-treated and TO vehicle signals are matched. […] A GI reading of 200% represents complete death of all cells in the culture well. Compounds reaching an activity plateau of GI 200% are considered cytotoxic. GI is calculated by applying the following test and equation:
# (§4) [formula] [formula] where T is the signal measure for a test article, V is the vehicle-treated control measure, and Vo is the vehicle control measure at time zero. This formula is derived from the Growth Inhibition calculation used in the National Cancer Institute's NCI-60 high-throughput screen.
# (§5) Combination analysis data were collected in a 9×9 dose matrix. Synergy was calculated by comparing a combination's response to those of its single compound, against the drug-with-itself dose-additive reference model. Deviations from dose additivity may be assessed visually on an isobologram or numerically with a Combination Index (CI). See the tables below for CI at 50% inhibition and CI at 50% growth inhibition. Additive effect is CI=1.0. Synergistic effect is CI<1. Antagonistic effect is CI>1.0.
# (§6) To measure combination effects in excess of Loewe additivity, a scalar measure to characterize the strength of synergistic interaction termed the Synergy Score was devised. […]
# HuT 102 cell line = system: HuT 102 cell line
# Experimental: as §1, §2, §3, §4, §5, §6
# HuT 78 cell line = system: HuT 78 cell line
# Experimental: as §1, §2, §3, §4, §5, §6
# MJ (G11) cell line = system: MJ (G11) cell line
# Experimental: as §1, §2, §3, §4, §5, §6
smiles,measurement,setting,value
"O=C(/C=C\n1cnc(-c2cc(C(F)(F)F)cc(C(F)(F)F)c2)n1)NNc1cnccn1 [Selinexor, (Z)-3-(3-(3,5-bis(trifluoromethyl)phenyl)-1H-1,2,4-triazol-1-yl)—N′-(pyrazin-2-yl)acrylohydrazide]",CI50 growth inhibition,H9 cell line,A3 (A3=>3)
same,CI50 inhibition,H9 cell line,A3 (A3=>3)
same,Synergy Score growth inhibition,H9 cell line,10.4
same,Synergy Score inhibition,H9 cell line,3.23
same,CI50 growth inhibition,HH cell line,A2 (A2=1 to <3)
same,CI50 inhibition,HH cell line,A2 (A2=1 to <3)
same,Synergy Score growth inhibition,HH cell line,1.53
same,Synergy Score inhibition,HH cell line,1.25
same,CI50 inhibition,HuT 102 cell line,A1 (A1=0.0001 to <1)
same,Synergy Score inhibition,HuT 102 cell line,0.82
same,CI50 growth inhibition,HuT 78 cell line,A3 (A3=>3)
same,CI50 inhibition,HuT 78 cell line,A2 (A2=1 to <3)
same,Synergy Score growth inhibition,HuT 78 cell line,5.85
same,Synergy Score inhibition,HuT 78 cell line,1.94
same,CI50 growth inhibition,MJ (G11) cell line,A3 (A3=>3)
same,CI50 inhibition,MJ (G11) cell line,A2 (A2=1 to <3)
same,Synergy Score growth inhibition,MJ (G11) cell line,4.50
same,Synergy Score inhibition,MJ (G11) cell line,1.50
